Results: PMC6201103, “The Small-Compound Inhibitor K22 Displays Broad Antiviral Activity against Different Members of the Family Flaviviridae and Offers Potential as a Panviral Inhibitor” (Antimicrobial Agents and Chemotherapy, 2018)
Values joined by “and” are separate entries in the source; they are usually repeats but may differ in a detail not shown here. Equal entries are not always repeated. Where two headings read alike, the source gives them in different places.

Columns and labels:
ZIKV [1] = experiment: ZIKV infectivity (TCID50 titration of supernatant) and replication (E protein flow cytometry) in K22-treated Vero cells; assay type: cell-based, Zika virus; settings: for IC50: Zika virus, Vero cells, MOI 0.1 TCID50/cell
Method: (§1) To test the effect of K22 on flavivirus, hepacivirus, and pestivirus infection, 8 × 10^4 Vero cells were seeded in 12-well dishes (flaviviruses), 5 × 10^4 Huh7-Lunet-N-hCD81-FLuc cells were seeded in 12-well dishes (hepacivirus), or 1 × 10^4 BT cells were seeded in 96-well dishes (pestivirus). At 1 day postseeding, cells were treated with different concentrations of K22 (diluted in DMSO at the concentrations indicated below) for 3 to 4 h and preincubated in 5% CO2 at 37°C. Cells were infected with different viruses at a multiplicity of infection (MOI) of 0.1 TCID50/cell for 1 h at 37°C. For HCV infection, cells were infected with JcR-2a or HCV Jc1 for 3 h at 37°C. Afterwards, cells were washed with prewarmed phosphate-buffered saline (PBS) solution, before cell culture medium supplemented with K22 or the DMSO control at each concentration was added, and incubated at 37°C in a 5% CO2 atmosphere. At 24 h and/or 48 h postinfection (p.i.), supernatants and cells were collected for further analysis.
(§2) Flavivirus replication and the cytopathic effect (CPE) were evaluated from collected cells. Cells in suspension were first labeled with the Fixable Aqua dead cell stain kit (Thermo Fisher Scientific, Waltham, MA, USA) for 30 min on ice, followed by washing with cold PBS. […] After washing, anti-mouse IgG2a conjugated with Alexa Fluor 647 (Thermo Fisher Scientific) was added for 15 min, and the cells were acquired on a FACSCanto II flow cytometer (BD Biosciences, Allschwil, Switzerland). FlowJo (v.9.1) software (TreeStar, Inc., Ashland, OR, USA) was used for analysis. Cell debris and doublets were excluded by electronic gating in forward/side scatter plots. Cell culture supernatants were collected at 24 and 48 h p.i., and the flavivirus titers in Vero cells were determined using the immunoperoxidase monolayer assay (IPMA). For that, supernatants 10-fold diluted in cell culture medium supplemented with 2% (vol/vol) FBS were incubated on Vero cells for 72 h at 37°C in a 5% CO2 atmosphere. At that point, cells were fixed in 4% (wt/vol) PFA for 10 min at room temperature, washed, and immunolabeled with anti-flavivirus group antigen antibody 4G2 diluted in 0.3% (wt/vol) saponin in PBS for 30 min at 37°C and then washed and incubated for another 30 min at 37°C with goat anti-mouse IgG conjugated with horseradish peroxidase (Dako), followed by incubation for 10 to 30 min at room temperature with 3-amino-9-ethylcarbazole (AEC) substrate (Sigma-Aldrich).

JEV = JEV infectivity (TCID50 titration) and replication in K22-treated Vero cells; assay type: cell-based, Japanese encephalitis virus; settings: for IC50: Japanese encephalitis virus, MOI 0.1 TCID50/cell
Method: as §1, §2

YFV = experiment: microbe, parasite or virus in culture; assay type: cell-based, yellow fever virus; settings: for IC50: Yellow fever virus, Vero, read-out: IC50, YFV infectivity
USUV = experiment: microbe, parasite or virus in culture; assay type: cell-based, Usutu virus; settings: for IC50: Usutu virus, Vero, read-out: IC50, USUV infectivity
WESSV = experiment: microbe, parasite or virus in culture; assay type: cell-based, Wesselsbron virus; settings: for IC50: Wesselsbron virus, Vero, read-out: IC50, WESSV infectivity
HCV = HCV infectivity, supernatant transferred onto naive Huh7-Lunet-N-hCD81-FLuc cells, Renilla luciferase; assay type: cell-based, hepatitis C virus
BVDV SuwaCp = BVDV SuwaCp replication, qRT-PCR of viral RNA in BT cells; assay type: cell-based, bovine viral diarrhea virus
BVDV SuwaNcp = experiment: microbe, parasite or virus in culture; assay type: cell-based, bovine viral diarrhea virus
[2] = Cytotoxicity, CytoTox 96 nonradioactive cytotoxicity assay on BT cells; assay type: cell-based, bovine; settings: bovine, CytoTox 96 assay
Method: (§3) To evaluate the effect of K22 on cell viability, proliferation, as well as cytotoxicity, uninfected cells were treated with the compound at the concentrations specified above or with DMSO as a control. To determine the effect of K22 on cell viability, Vero cells were collected and labeled with the Fixable Aqua dead cell stain kit (Thermo Fisher Scientific) for 30 min on ice, before the cells were washed with cold PBS and fixed for flow cytometry analysis. As a positive control for cell death, cells were heated at 65°C for 30 min. The mean fluorescence intensity (MFI) was determined by flow cytometry analysis on a FACSCanto II flow cytometer (BD Bioscience) and evaluated using FlowJo (v.9.1) software. […] The compound was added at the concentrations indicated above, and cytotoxicity was determined at 24 and/or 48 h p.i. by determination of the absorbance at 490 nm using a plate reader (VersaMax [Molecular Devices, Wokingham, UK] or an EnSpire 2300 multilabel reader [PerkinElmer, Schwerzenbach, Switzerland]). Cell proliferation following compound treatment was determined using a MultiTox-Fluor multiplex cytotoxicity assay (catalog number G9200; Promega) according to the manufacturer's recommendations. The readout was performed using a multilabel reader (EnSpire 2300 multilabel reader; PerkinElmer) upon excitation at ∼400 nm and emission at ∼505 nm. […]

BT cells = experiment: as above; assay type: cell-based, bovine; settings: concentrations used for BVDV
Method: as §3

Vero cells = experiment: Cytotoxicity on Vero cells (Fixable Aqua dead cell stain flow cytometry; CytoTox 96 assay); assay type: cell-based; settings: concentrations of Fig. 1c, confirmed with commercial kit
Method: as §3

ZIKV [3] = experiment: Immunofluorescence analysis of E protein and dsRNA in ZIKV-infected Vero cells; settings: 30 μM K22, 48 h p.i.

Structure (SMILES): O=C(N/C(=C\c1ccccc1)C(=O)N1CCC(O)(c2ccc(Br)cc2)CC1)c1ccccc1 [K22, (Z)-N-{3-[4-(4-bromophenyl)-4-hydroxypiperidin-1-yl]-3-oxo-1-phenylprop-1-en-2-yl} benzamide]
- SI (selectivity index), ZIKV (ZIKV [1]; 24 h p.i.): 35.6
- SI (selectivity index), ZIKV (ZIKV [1]; 48 h p.i.): 39.9
- IC50 (ZIKV [1]; 24 h p.i.): 2.5 µM
- IC50 (ZIKV [1]; 48 h p.i.): 2.1 µM
- reduction of ZIKV viral titers (ZIKV [1]; higher concentrations of K22, Vero cells): up to 4 orders of magnitude
- SI (selectivity index), JEV (JEV; 24 h p.i.): 193.9
- SI (selectivity index), JEV (JEV; 48 h p.i.): 19.1
- IC50 (JEV; 24 h p.i., Vero cells): 0.5 µM
- IC50 (JEV; 48 h p.i., Vero cells): 4.4 µM
- K22 concentrations reducing JEV replication and infectivity (JEV; dose-dependent, Vero cells): ≥ 5 µM
- K22 concentrations reducing YFV replication and infectivity (YFV): ≥ 5 µM
- SI (selectivity index), YFV (YFV): 24.3 and 36.7
- IC50 (YFV; 24 h): 3.7 µM
- IC50 (YFV; 48 h): 2.3 µM
- IC50 (USUV; 24 h): 9 µM
- IC50 (USUV; 48 h): ~10 µM
- K22 concentrations necessary to significantly inhibit USUV (USUV; Vero cells): ≥ 20 µM
- SI (selectivity index), WESSV (WESSV): 15.2 and 12.5
- K22 concentrations necessary to significantly inhibit WESSV (WESSV; Vero cells): ≥ 20 µM
- IC50 (WESSV; 24 h): 5.9 µM
- IC50 (WESSV; 48 h): 6.8 µM
- SI (selectivity index), HCV (HCV): 9.7
- IC50 (HCV; Hepatitis C virus, 72 h, read-out: IC50 for infectivity, HCV): 2.2 µM
- IC50 (BVDV SuwaCp; Bovine viral diarrhea virus isolates and strains, 48 h): 15.5 µM
- K22 concentrations necessary to significantly reduce viral replication of BVDV SuwaCp (BVDV SuwaCp; qRT-PCR, BT cells): ≥ 20 µM
- SI (selectivity index), BVDV SuwaNcp (BVDV SuwaNcp): >16.4
- K22 concentration necessary to significantly reduce infectivity of BVDV SuwaNcp (BVDV SuwaNcp; BT cells): ≥ 40 µM
- IC50 (BVDV SuwaNcp; Bovine viral diarrhea virus isolates and strains, read-out: IC50 for infectivity, BVDV SuwaNcp): 21.4 µM
- CC50 [2]: > 1000 µM
- cellular toxicity of K22 (BT cells): no cellular toxicity
- cytotoxic effect of K22 (Vero cells): no cytotoxic effect
- viral E protein and dsRNA markers of infection (ZIKV [3]): severely reduced
